Molecules are shown by their SMILES.

The test concerns the target recombinant human PCSK9 (Homo sapiens, UniProt Q8NBP7). The experiment in a line: Direct binding measurement by backscatter interferometry. The note with it: 6-point binding curve, ±8 nM, r^2 of 0.86. How it is done:
Direct binding was measured using backscatter interferometry, which has been previously described in “Interferometric detection system and method” (EP 1210581), “Free solution measurement of molecular interactions by backscattering interferometry” (WO 2009039466), “Temperature-stable interferometer” (WO 2009076372), and “Improved event detection for back-scattering interferometry” (WO 2013158300); which are incorporated herein in their entirety by reference.

Chain of recombinant human PCSK9 (Q8NBP7 153-692): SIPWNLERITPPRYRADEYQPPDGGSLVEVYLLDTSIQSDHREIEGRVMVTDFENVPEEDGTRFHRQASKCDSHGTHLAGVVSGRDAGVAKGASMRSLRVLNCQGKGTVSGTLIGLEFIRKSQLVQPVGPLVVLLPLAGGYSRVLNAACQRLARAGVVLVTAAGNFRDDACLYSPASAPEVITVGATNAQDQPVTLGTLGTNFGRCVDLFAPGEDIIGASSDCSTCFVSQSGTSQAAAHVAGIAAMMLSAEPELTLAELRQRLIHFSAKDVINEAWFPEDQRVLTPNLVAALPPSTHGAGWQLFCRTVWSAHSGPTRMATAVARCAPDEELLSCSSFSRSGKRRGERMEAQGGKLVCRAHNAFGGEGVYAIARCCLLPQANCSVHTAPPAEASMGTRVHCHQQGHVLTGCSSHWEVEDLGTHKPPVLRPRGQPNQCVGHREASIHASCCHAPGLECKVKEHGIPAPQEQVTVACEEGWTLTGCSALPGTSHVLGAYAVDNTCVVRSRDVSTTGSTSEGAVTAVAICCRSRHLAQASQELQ

The Kd is a measure of binding affinity in units of concentration. For the compound `C/C(=N\Nc1nnn[nH]1)C(=O)N1CCC(c2ccccc2)CC1` [SRX200, (E)-2-(2-(1H-tetrazol-5-yl)hydrazono)-1-(4-phenylpiperidin-1-yl)propan-1-one], the Kd turned out to be 0.024 µM.

The record behind these values is patent publication US11026957B2, “Method to treat lipid dysregulation by modulation of proprotein convertase subtilisin/kexin type 9 (PCSK9) protein activity with small molecule ligands” (SRX CARDIO, LLC, priority 2014, dated 2021).
